Here are results for one substance from US20230381275A1, “MUSCULAR FUNCTION IMPROVING AGENT FOR SKELETAL MUSCLE OF WHICH FUNCTION IS DEGRADED DUE TO AGING” (OSAKA UNIVERSITY, priority 2020, published 2023).

For assay [1], the system named is aging-accelerated model mice (SAMP10). Nature of the assay: Number of collisions during treadmill running, weekly test (Example 1). The format is in vivo. The conditions noted are these: after 30 weeks of age (tested to 35 weeks), SV peptide 20 ng/ml injected into bilateral lower limb muscles after treadmill training, vs PBS control group, FIG. 1. How it is done: In this example, a peptide consisting of the amino acid sequence of SVVYGLR (SEQ ID No.: 1) (SV peptide) was administered to aging-accelerated model mice, and their effects on restoring muscle function were confirmed.
SV peptide was synthesized by the Fmoc method using a multi-species solid-phase automated peptide synthesizer (PSSM-8; Shimadzu Corp.) SV peptide was added to PBS and adjusted to 20 ng/ml to prepare an injection formulation.
Aging-accelerated model mice (SAMP10 21 weeks old) were used to perform training on a treadmill (MK-680; Muromachi Kikai Co., Ltd.) and subsequent SV peptide administration according to the schedule in the following table. […]
Once a week, the mice were tested on a treadmill to measure the number of collisions. After SV peptide injection, the mice have trained on the treadmill again (18 m/min×90 min), and the number of times the mice collided with the treadmill wall due to being unable to run at a speed equal to or faster than that of the belt was measured during treadmill training. […] In the control group, after training on the treadmill in the same manner as the experimental group, PBS was injected into the bilateral lower limb muscles instead of SV peptide, and the number of collisions was measured once a week.

For assay [2], the system named is animal models of injured skeletal muscle. The conditions noted are these: local administration, Non-Patent Document 7, Patent Document 5; cited from earlier work.
The conditions of assay [3]: relative to SVVYGLR (SEQ ID NO.: 1); earlier work of the inventors; cited from earlier work.
For assay [4], the system named is aging-accelerated model mice (SAMP10). As to the kind of experiment: Endurance evaluation test on treadmill, mean running distance (Example 4). Type of assay: in vivo. How it is done:
In this example, we evaluated exercise in aging-accelerated model mice when SV peptide was administered continuously.
Aging-accelerated model mice (SAMP10 28 weeks old) were trained on a treadmill (MK-680; Muromachi Kikai Co., Ltd.) (18 m/min×90 min) and subsequent SV peptide administration was performed according to the schedule in the following table. After 30 weeks of age, training was performed continuously from Monday to Friday of each week. SV peptides were added to PBS to adjust to a concentration of 1 μg/ml or 20 ng/ml for injection formulation. Localized injections were made into the bilateral leg muscles of each mouse anesthetized by inhalation with sevoflurane immediately after training on Tuesday and Friday (SV group). Exercise evaluations were performed after SV peptide localization on Friday.
Exercise evaluations were conducted for endurance evaluation, in which the belt speed on the treadmill was increased incrementally at regular intervals, and for slope-up evaluation, in which the belt incline was increased incrementally at regular intervals. […] In the PBS group as the control group, PBS was localized to the bilateral lower limb muscles instead of SV peptide after training on the treadmill in the same manner as in the SV group.
The results of the endurance evaluation test are shown in FIG. 5 as a graph of the percent change in mean running distance. […] The mean running distance for each group was calculated as the mean value of running distance calculated based on the running time and speed of each mouse in each group (the mean distance was calculated in the same manner hereinafter). […] In the SVN group (SVN group) in which SV peptide was administered at the same site and at the same dose as in the SV group without training on the treadmill, the rate of change in mean running distance was measured.

Assay [5] has as its system aging-accelerated model mice. As to the kind of experiment: Endurance evaluation test on treadmill (Example 7). The format is in vivo. The procedure:
In this example, the number of SV peptide doses and dosage in Example 4 were changed as shown in the following table, and exercise evaluation (endurance evaluation) was performed when SV peptide was continuously administered to aging-accelerated model mice. The conditions other than the number of SV peptide doses and dosage were the same as in Example 4.
Specifically, SV peptide was added to PBS to adjust to a concentration of 20 μg/ml for the injectable formulation, and localized to the bilateral lower limb muscles of each mouse anesthetized by inhalation with sevoflurane immediately after training once every 4 weeks (Friday) (SV group; once every 4 weeks).
The results of the endurance evaluation test are shown in FIG. 14 with a graph showing the mean running distance for the SV group (n=6) and the PBS group (n=6). In addition, graphs showing the difference between the mean running distance on the reference date (30 weeks of age) and the mean running distance in each test are shown in FIGS. 15 and 16. […] In FIG. 16, the sum of the absolute difference in mean running distance relative to the reference date in the SV group and the absolute difference in mean running distance relative to the reference date in the PBS group is shown as the SV treatment effect.
The change over time in the mean maximum speed in each group is shown in FIG. 17, and graphs showing the difference between the mean maximum speed on the reference date and the mean maximum speed on each test date are shown in FIGS. 18 and 19. […] In FIG. 19, the sum of the absolute difference in mean running distance relative to the reference date in the SV group and the absolute difference in mean running distance relative to the reference date in the PBS group is shown as the SV treatment effect. The treatment effect of more than 0.15 m/sec was confirmed at 34 and 39-41 weeks.

The next assay has as its system fibroblasts. The conditions noted are these: see Patent Document 1; cited from earlier work.
Assay [6] relates to aging-accelerated model mice (SAMP10). Nature of the assay: Mean cross-sectional area of muscle fibers, HE staining, 40-week-old mice (Example 3). The format is in vivo. The following applies: 40-week-old SAMP10 mice; treadmill training plus SV peptide 20 ng/ml; vs PBS control; FIG. 3B. How it is done:
In this example, we evaluated muscle fibers in aging-accelerated model mice after continuous administration of SV peptide.
Aging-accelerated model mice (SAMP10 21 weeks old) were trained on a treadmill (MK-680; Muromachi Kikai Co., Ltd.) (18 m/min×90 min) and subsequent SV peptide administration was performed according to the same schedule as in Example 1. After 36 weeks of age, training on the treadmill and subsequent SV peptide administration were conducted under the same conditions as at 35 weeks of age, and continued until the aging-accelerated model mice reached 40 weeks of age. In the control group, after training under the same conditions as the experimental group, PBS was injected into the bilateral lower limb muscles instead of SV peptide.
The gastrocnemius and soleus muscles of the lower limbs were then removed from 40-week-old aging-accelerated model mice, sections were prepared according to the standard method, and HE staining was performed.

Where only a bound is given, the exact number is not on record here.

On to “SVVYGLR [SV peptide, peptide consisting of 7 amino acids (SVVYGLR]”, for which, in assay [1], the “number of collisions during treadmill running” value is on record as “significant suppression of the increase in the number of collisions compared to the control group”. In assay [2], the “diameter of regenerated muscle fibers” value is on record as “significantly higher” and the muscle tissue regeneration result was “promotes muscle tissue regeneration”. In addition, the angiogenic effect result in assay [3] is reported as “promoting angiogenesis”. The “mean running distance compared to the reference date” value in assay [4] (SV group (training and SV peptide), during the measurement period, reference date 30 weeks) was “increased compared to that at the reference date”. For the same substance, the “rate of change of the mean running distance” value in assay [4] (SV group (training performed and SV peptide injected, 1 μg/ml or 20 ng/ml, 2 times/W), mean running distance at 30 weeks (reference date) = 100%, FIG. 5) is on record as “about 130%”. Also, in assay [4] (SVN group: SV peptide at same site and dose without training on the treadmill, not shown in the figure), the “mean running distance over time” value is given as “decreased over time”. Moreover, in assay [4] (SVN group: SV peptide without training on the treadmill, since the reference date (30 weeks = 100%)), the “rate of change in mean running distance” value is ≤ 100%. Further, the “SV treatment effect (sum of absolute differences relative to the reference date of SV group and PBS group)” value in assay [5] (FIG. 19, at 34 and 39-41 weeks, SV peptide 20 μg/ml once every 4 weeks plus training) is on record as “more than 0.15 m/sec”. Besides, in assay [5] (SV group, 20 μg/ml once every 4 weeks plus training, at 41 weeks of age vs 30 weeks of age), the mean maximum speed result is listed as “same mean maximum speed at 41 weeks of age as at 30 weeks of age”. Further, in assay [5] (SV group, 20 μg/ml once every 4 weeks plus training, compared to the PBS group), the “decrease in the mean maximum speed during the test period” value was “able to suppress the decrease in the mean maximum speed”. In addition, the “mean speed (mean maximum speed)” value in assay [5] (SV group, 20 μg/ml once every 4 weeks plus training, test from 31 to 36 weeks of age, FIG. 17) is listed as “continuous increase”. Further, in assay [5] (SV group, SV peptide 20 μg/ml once every 4 weeks plus training, at 41 weeks of age vs 30 weeks of age), the mean running distance result is listed as “exceeded that of 30 weeks of age”. The mean running distance entry in assay [5] (SV group, SV peptide 20 μg/ml once every 4 weeks plus training, from 31 to 36 weeks of age, FIGS. 14-16) is “increased significantly”. Moreover, in the assay with fibroblasts, the “type III collagen production-promoting effect / type III collagen secretion” value is reported as “promoting”. Besides, in assay [6], the “mean cross-sectional area of fast muscle fibers (gastrocnemius muscle)” value is reported as “significantly higher than in the control group” and the “mean cross-sectional area of slow muscle fibers (soleus muscle)” value is reported as “significantly higher than in the control group”.
